Test results taken from paper PMC10356901, “Mitochondria-derived peptide SHLP2 regulates energy homeostasis through the activation of hypothalamic neurons” (Nature Communications, 2023).
Where “and” joins values, the source holds several entries; their conditions need not be identical. Identical values can stand only once. Where no end group is shown, it is not given here.

Assays:
CXCR7 [1] = assay: Nanoluc-complementation (NanoBiT) β-Arrestin2 recruitment to CXCR7; type: cell-based, human; conditions: HEK293T, n = 4 each group
Method: The recruitment assay was performed based on Nano-luciferase[49]. The vectors (50 ng; gift of Prof. Jong-Ik Hwang, Korea University) encoding human CXCR7, CXCR4, and β-Arrestin2 tagged with SmBiT and LgBiT under Ubiquitin C promoter[49] were transfected into HEK293T cells in a 96-well clear bottom culture plate using Lipofectamine 2000 according to the manufacturer’s protocol. Cells were washed three times with an assay buffer containing (in mM) 140 NaCl, 2.5 KCl, 10 Glucose, 5 HEPES, 2 CaCl2, and 2 MgSO4, pH 7.4 after 24 h. Cells were then incubated with 5 µM Coelenterazine-h (Promega, S201) in the assay buffer for 30 min in the dark, and luminescence was measured at 35 °C in the Victor Nivo Multimode Plate reader (PerkinElmer). The background luminescence was measured for at least 10 min before the addition of ligands, and signals were monitored for at least 60 min after the application of SHLP2 or recombinant mouse CXCL12 (R&D systems, 460-SD-010/CF). The specificity of SHLP2 β-Arrestin2 recruitment through CXCR7 was also confirmed through the assay with CXCR4. Luminescent signals were collected through a 700 nm-IR filter and data were shown as light counts per each cycle of measurement.

[2] = cited from earlier work
Source text: One of the first MDPs discovered is Humanin, a 24-amino-acid peptide encoded by the mitochondrial 16S ribosomal RNA (rRNA) gene. It was originally identified in 2001 during a screening for neuroprotective factors against Alzheimer’s disease[6],[7]. […] Another MDP called Mito chondrial Open Reading Frame of the 12S rRNA-c (MOTS-c) is encoded by the mitochondrial 12S rRNA gene[9]. MOTS-c is a mitochondria-originated metabolic hormone which ... || In addition to humanin and MOTS-c, a recent study has identified an additional six small humanin-like peptides (SHLP1 to 6) encoded by the 16S rRNA gene of the mtDNA genome. […] However, the mechanism by which SHLP2 affec ...

[3] = Angiotensin II-induced water consumption test (Supplementary Fig. 4a); type: in vivo, mouse; conditions: After (angiotensin II); individual animals
Method: For intracerebroventricular (ICV) cannulation, mice were anesthetized by intraperitoneal injection (IP) of Zoletil (titelamine/zolazepam 30 mg/kg) and Rompun (xylazine 10 mg/kg), then placed onto a stereotaxic apparatus. After setting the ventricular coordinates, a permanent 26-gauge stainless steel cannula (Plastic one, Inc.) was implanted in the third ventricle (1.8 mm caudal to bregma, and 5.0 mm ventral to the sagittal sinus according to the Paxinos and Franklin’s atlas) and secured to the skull surface using a dental acrylic (Vertex). Mice were individually housed and allowed to recover for at least 1 week. The angiotensin II-induced water consumption test was performed to confirm the position of the ICV cannulation. […] Mice with no angiotensin II-induced thirst behavior were excluded from the experiments.

[4] = Dot blot for SHLP2 in CSF after IP injection; type: in vivo, mouse
Method: The immuno-dot blot assay was performed by using the human and mice serum or mouse CSF. 0.2 μm nitrocellulose membranes were activated with ultrapure water (Invitrogen, 10977015), and 2 μL of samples were spotted on a membrane and dried for 30 mins at RT. The membrane was blocked in 5% BSA prepared in 1X Tris Buffered Saline-0.1% Tween 20 (TBST) for 1 h before being overnight incubated with anti-SHLP2 at 4 °C. Membranes were washed 3 times with 1X TBST, then incubated with anti-rabbit IgG (Invitrogen, 31460, 1:3000). The membranes were washed and visualized using the ImageQuant™ LAS 4000 (GE Healthcare Life Science). Blot densitometry was measured using ImageJ software (NIH Image). To quantitate the immuno-dot blot assay results, we prepared controls (total protein level stained by amido black), and subsequently established a calibration figure for each run of the assay.

CXCR7 [5] = biological target: T1, CXCR7 (Homo sapiens, UniProt P25106); assay: PathHunter β-Arrestin recruitment to CXCR7, dose response; type: cell-based; conditions: 10-point curve, Hill / four-parameter logistic
T1 construct: host or cells: CHO-K1
Method: The GPCR profiling was performed using PathHunter GPCRmax Arrestin recruitment assay with 168 known GPCRs provided by DiscoverX (Eurofins). This assay utilized Chinese Hamster Ovary CHO-K1 cells expressing GPCR tagged with ProLink (PK) and β-Arrestin2 tagged with a deletion mutant of β-galactosidase as an enzyme acceptor. Upon the binding of the ligand to the GPCR, the recruitment of tagged β-Arrestin2 to the GPCR causes the complementation of a functional β-galactosidase, hydrolyzing a chemiluminescence substrate. The assay was performed with known ligands in agonist and antagonist modes, with data presented as: %Activityagonist=100%×MeanRLUSHLP2−MeanRLU(vehiclecontrol)/MeanMAXRLUcontrolligand−MeanRLU(vehiclecontrol) and %Activityantagonist=100%×1−MeanRLUSHLP2−MeanRLU(vehiclecontrol)/MeanMAXRLUcontrolligand−MeanRLU(vehiclecontrol)
The dose response (EC50) was built using a 10-point curve and fit to a Hill Equation.

[6] = tested on: POMC neurons expressing hM4Di; assay: Patch clamp of hM4Di-expressing POMC neurons on CNO application; type: cell-based, mouse; conditions: for Firing rate / Resting membrane potential (RMP): hM4Di-expressing POMC neurons, CNO
Method: Slices were moved to a submerged-type recording chamber with continuous perfusion of carbogenated recording aCSF heated to 31 °C at a flow rate of approximately 2 mL/min. Tested compounds were added through bath perfusion. To block synaptic inputs, the aCSF contained 100 nM tetrodotoxin (TTX citrate; Tocris, 1069), 100 μM picrotoxin (Sigma-Aldrich, P8390), 100 μM D(−)-2-Amino-5-phosphonopentanoic acid (D-AP-V; Tocris, 0106) and 20 μM CNQX (CNQX-disodium; Tocris, 1045). To block ERK1/2 activation or PI3K signaling pathway, 10 µM of PD98059 (Tocris, 1213) or 1 µM of wortmannin (Tocris, 1232) was added to the bath solution for at least 30 min before any measurement. To test the effect of CNO on POMC neurons expressing the DREDD hM4Di receptor, 5 μM of CNO were applied for 1 to 2 min.
POMC or AgRP-expressing neurons in the ARC were identified with a brief exposure to epifluorescence on an upright microscope (Nikon FN1) using a 40X water-immersion objective and differential interference contrast optics. The pipette solution contains (in mM) 127 K-Methanesulfonate, 5 KCl, 10 HEPES, 0.3 EGTA, 4 Mg-ATP, 0.3 Na-GTP, and is of a pH adjusted to 7.3 with KOH and a 288 mOsm/kg osmolality. The patch pipettes have a resistance of 4-6 MΩ when filled with the pipette solution. […] The basal resting membrane potential and firing rate were recorded for around 3 min after breaking in, and bath perfusion of SHLP2 was applied for 3 to 5 min. Neurons were classified as responsive if there was a change in resting membrane potential of at least 2 mV during the period of drug application. The access resistance (Ra) was monitored throughout the experiment, and cells with a Ra of more than 35 MΩ were excluded from the analysis. Data were acquired at 10 kHz, filtered with a lowpass filter at 5 kHz and analyzed offline with Clampfit 10 (Molecular Devices). The calculated liquid junction potential was +9.55 mV and used to correct all data.

[7] = biological target: CXCR7 tagged with ProLink (PathHunter CHO-K1 cell line) (UniProt P25106)
adipocytes = conditions: in vitro; cited from earlier work
Source text: In addition to humanin and MOTS-c, a recent study has identified an additional six small humanin-like peptides (SHLP1 to 6) encoded by the 16S rRNA gene of the mtDNA genome. […] However, the mechanism by which SHLP2 affec ...

Sequence of CXCR7 tagged with ProLink (PathHunter CHO-K1 cell line) (P25106 whole entry): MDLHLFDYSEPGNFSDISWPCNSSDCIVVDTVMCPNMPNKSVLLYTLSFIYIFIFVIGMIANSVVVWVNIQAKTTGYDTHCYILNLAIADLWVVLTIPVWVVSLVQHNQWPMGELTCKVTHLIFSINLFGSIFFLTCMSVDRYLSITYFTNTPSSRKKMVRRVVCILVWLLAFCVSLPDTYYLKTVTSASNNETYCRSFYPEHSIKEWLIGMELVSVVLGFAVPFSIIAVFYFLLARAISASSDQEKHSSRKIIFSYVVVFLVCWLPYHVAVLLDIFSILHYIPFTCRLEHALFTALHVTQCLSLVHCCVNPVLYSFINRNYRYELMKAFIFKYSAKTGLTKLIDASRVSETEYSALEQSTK
T1 sequence (P25106 whole entry): as above
T1 sequence (P32121 whole entry partner): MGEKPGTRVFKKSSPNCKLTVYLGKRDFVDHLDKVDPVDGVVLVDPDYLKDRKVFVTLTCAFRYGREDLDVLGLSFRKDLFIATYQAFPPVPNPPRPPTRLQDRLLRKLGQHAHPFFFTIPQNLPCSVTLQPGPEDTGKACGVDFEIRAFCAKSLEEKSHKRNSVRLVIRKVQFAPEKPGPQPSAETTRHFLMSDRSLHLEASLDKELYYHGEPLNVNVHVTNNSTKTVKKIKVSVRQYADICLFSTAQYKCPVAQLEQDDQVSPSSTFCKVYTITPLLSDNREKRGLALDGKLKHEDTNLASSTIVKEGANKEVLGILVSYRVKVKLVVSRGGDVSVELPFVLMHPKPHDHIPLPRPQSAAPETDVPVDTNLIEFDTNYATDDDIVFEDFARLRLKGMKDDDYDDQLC

With Small humanin-like peptide 1 [SHLP1] as the compound, how does the “CXCR7 activation (β-Arrestin2 recruitment) by SHLP1 to 6” value (“CXCR7 activation” for short) (CXCR7 [1]) read?
The value was “but not by SHLP1, 3, 4, 5, or 6”.

For “humanin: 24-amino-acid peptide encoded by the mitochondrial 16S ribosomal RNA gene (MAPRGFSCLLLLTSEIDLPVKRRA; UniProt Q8IVG9 1-24, looked up)”, which lifespan [2] is on record?
The lifespan was “promote lifespan”.

Which lifespan [2] does the source give for “Mito chondrial Open Reading Frame of the 12S rRNA-c (MRWQEMGYIFYPRKLR; UniProt A0A0C5B5G6 1-16, looked up) [MOTS-c, mitochondrial-derived peptide encoded by the mitochondrial 12S rRNA gene]” here?
Its lifespan is “promote lifespan”.

With Small humanin-like peptide 4 [SHLP4] as the compound, how does the “CXCR7 activation” value (CXCR7 [1]) read?
Its value is “but not by SHLP1, 3, 4, 5, or 6”.

With Small humanin-like peptide 5 [SHLP5] as the compound, how does the “CXCR7 activation” value (CXCR7 [1]) read?
The value was “but not by SHLP1, 3, 4, 5, or 6”.

For “angiotensin II (DRVYIHPF; Angiotensin-2; UniProt P01019 25-32, looked up) [used in the water consumption test to confirm ICV cannula position]”, which “Fig. S4a water intake” value [3] is on record?
The value was 0.37 g and 0.63 g and 0.3 g and 0.21 g.

For Small humanin-like peptide 6 [SHLP6], which “CXCR7 activation” value (CXCR7 [1]) is on record?
Its value is “but not by SHLP1, 3, 4, 5, or 6”.

For “MGVKFFTLSTRFFPSVQRAVPLWTNS [SHLP2, Small humanin-like peptide 2]”, which “SHLP2 in CSF, relative dot blot densitometry” value ([4]; IP injection, individual animals (n = 3)) is on record?
Its value is 3.163 and 4.493 and 3.525.

What about the “SHLP2 detection in CSF” value ([4]; systemic (IP) injection) of the same compound?
The value was “highly detected in the CSF”.

And the EC50 (CXCR7 [5])?
The EC50 was 970 nM.

With C[N+]1([O-])CCN(C2=Nc3cc(Cl)ccc3Nc3ccccc32)CC1 [CNO, Clozapine-N-oxide] as the compound, how does the “effect on POMC neurons expressing hM4Di” value ([6]; 5 μM CNO, 1 to 2 min, n = 6 from 2 animals) read?
The value was “induced hyperpolarization of POMC neurons expressing hM4Di”.

What about the “resting membrane potential and firing rate of POMC neurons expressing hM4Di” value ([6]; 5 μM CNO, n = 6 from 2 animals) of the same compound?
Its value is “decreases in the resting membrane potentials (h) and firing rates (i)”.

And the Firing rate ([6]; replicate 1 of 6)?
Its Firing rate is 0.3384.

What about the “Resting membrane potential (RMP)” value ([6]; replicate 1 of 6) of the same compound?
Its value is -60.0566.

And the Firing rate ([6]; replicate 2 of 6)?
Its Firing rate is 0.

What about the “Resting membrane potential (RMP)” value ([6]; replicate 2 of 6) of the same compound?
The value was -63.8078.

What about the Firing rate ([6]; replicate 3 of 6) of the same compound?
The Firing rate was 0.1759.

What about the “Resting membrane potential (RMP)” value ([6]; replicate 3 of 6) of the same compound?
Its value is -77.9333.

And the Firing rate ([6]; replicate 4 of 6)?
Its Firing rate is 0.2189.

And the “Resting membrane potential (RMP)” value ([6]; replicate 4 of 6)?
Its value is -57.1355.

And the Firing rate ([6]; replicate 5 of 6)?
Its Firing rate is 0.1654.

What about the “Resting membrane potential (RMP)” value ([6]; replicate 5 of 6) of the same compound?
The value was -59.3185.

What about the Firing rate ([6]; replicate 6 of 6) of the same compound?
The Firing rate was 0.2879.

What about the “Resting membrane potential (RMP)” value ([6]; replicate 6 of 6) of the same compound?
Its value is -55.5068.

For “Small humanin-like peptide 2 (SHLP2), biotinylated”, which PathHunter β-Arrestin recruitment to CXCR7 (screen of 168 GPCRs, agonist mode): relative agonistic activity of SHLP2 as percent of the known ligand SDF1α/CXCL12 (% of the known ligand SDF1α/CXCL12) [7] is on record?
Its PathHunter β-Arrestin recruitment to CXCR7 (screen of 168 GPCRs, agonist mode): relative agonistic activity of SHLP2 as percent of the known ligand SDF1α/CXCL12 (% of the known ligand SDF1α/CXCL12) is 70.

What about the PathHunter β-Arrestin recruitment to CXCR7, dose response to SHLP2 (10-point curve): EC50 [7] of the same compound?
Its PathHunter β-Arrestin recruitment to CXCR7, dose response to SHLP2 (10-point curve): EC50 is 970 nM.

With Small humanin-like peptide 3 [SHLP3] as the compound, how does the “cellular differentiation and insulin sensitivity in adipocytes” value (adipocytes) read?
Its value is “enhance cellular differentiation and insulin sensitivity in adipocytes in vitro”.

What about the “CXCR7 activation” value (CXCR7 [1]) of the same compound?
Its value is “but not by SHLP1, 3, 4, 5, or 6”.
